For data set [1] the following is noted: cited from earlier work.
The nature of data set [2]: Photoactivity (maximal fluorescence intensity in PBS divided by that in DMSO). The settings on record: maximal FI in PBS divided by maximal FI in DMSO. Format: physicochemical. As to the method:
Photo-immunoconjugate-nanoliposomes (PIC-Nal) and photo-immunoconjugate-nanoliposomal irinotecan (PIC-Nal-IRI) were synthesized via cooper-free click chemistry (FIG. 1). Briefly, azide-containing PICs were mixed overnight with DBCO-containing Nal (or DBCO-containing Nal-IRI) at 60:1 ratio. Sepharose CL-4B size exclusion chromatography was used to purify PIC-Nal and PIC-Nal-IRI. Irinotecan and BPD concentrations were determined by UV-Vis spectroscopy and established molar extinction coefficients: 20985 M^−1cm^−1 at 380 nm for irinotecan, 80500 M^−1cm^−1 at 435 nm and 34,895 M^−1 cm^−1 at 687 nm for BPD (Table 1). Conjugation efficacy was determined by the molar ratio of PIC onto the liposomes to the total PIC added initially. Singlet oxygen sensor green (SOSG, 5 μM) was used to detect singlet oxygen (^1O2) yield upon light irradiation of PIC-Nal-IRI or controls. BPD concentration is fixed at 5 μM. A microplate reader (BioTek) was used to acquire SOSG fluorescence signals (Ex/Em: 504/525 nm) before and after light irradiation (690 nm, 150 mW/cm^2, 20 J/cm^2). Photoactivity is defined as the maximal fluorescence intensity (FI) of photosensitizer in PBS divided by the maximal FI of photosensitizer in DMSO.

The test system of the next data set is OVCAR-5 cells. As to the kind of experiment: Intracellular BPD uptake (BPD fluorescence, extraction and imaging). Format: cell-based, human. The settings on record: 24 hours post-incubation, compared to PIC and PIC-Nal. As to the method: For uptake and phototoxicity studies, OVCAR-5 cells (200 k cells/35-mm dish) were incubated with PIC-Nal or controls (i.e., PIC alone, no-treatment) at a fixed BPD concentration (0.25 μM) for 24 hours. For uptake study, cells were washed twice with PBS and dissolved in SOLVABLE™. The BPD fluorescence signals (Ex/Em: 435/690 nm) were acquired using a microplate reader to quantify the uptake of PIC-Nal. In another set of experiments, washed cells were fixed with 4% paraformaldehyde, and stained with DAPI. Cells were imaged with the LionHeart Imager (BioTek) using the 10× objective to visualize the BPD signal (Ex/Em: 422/690 nm) and the DAPI signal (Ex/Em: 358/461 nm). BPD fluorescence intensity was quantified using ImageJ (Schneider C A et al., NIH Image to ImageJ: 25 years of image analysis. Nat Methods 2012, 9:671-675). For phototoxicity studies, cells were irradiated with a 690 nm laser (20 J/cm^2, 150 mW/cm^2) at 24 hours post-incubation of PIC-Nal or controls. Cell viability was determined by MTT (3-(4,5-dimethylthiazol-2-yl)-2,5-diphenyltetrazolium bromide) assay (Thermo) at 24 hours post-light activation.

Data set [3] is described as follows: Absorbance at 690 nm in PBS compared to DMSO. As to conditions: fixed BPD concentration. The class given is physicochemical.

With benzoporphyrin derivative [BPD], the water solubility in data set [1] was below 0.05 mg/mL. Moreover, the photoactivity result in data set [2] was “poor photoactivity”. In addition, the “intracellular uptake by fluorescence imaging” value in the data set with OVCAR-5 cells was “highest uptake”. The “loss of absorbance value at 690 nm in PBS compared to fully dissolved in DMSO” value in data set [3] is around 64%.

(Values after patent US12653902B2, “Photo-immunoconjugate formulations and methods of treatment relating thereto” (University of Maryland, College Park, priority 2019, dated 2026).)
